Measurements from PubChem BioAssay (NCI).
Where “and” joins values, the source holds several entries; their conditions need not be identical. Equal entries are not always repeated.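 48-hour exposure; five concentrations; linearly interpolated endpoints. GI50 = concentration required for 50% inhibition of growth. TGI denotes the concentration required for complete inhibition of growth.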

Tests used:
Test in all cases: NCI anticancer screen, dose series, 48 h
SN12C renal = test system: SN12C renal
KM12 colon = test system: KM12 colon
MOLT-4 leukemia = test system: MOLT-4 leukemia
U251 CNS = test system: U251 CNS
COLO 205 colon = test system: COLO 205 colon
NCI-H23 lung = test system: NCI-H23 lung
NCI/ADR-RES ovarian = test system: NCI/ADR-RES ovarian
BT-549 breast = test system: BT-549 breast
MDA-MB-231 breast = test system: MDA-MB-231 breast
DU-145 prostate = test system: DU-145 prostate

SMILES	GI50 (SN12C renal) [µM]	TGI (SN12C renal)	GI50 (KM12 colon) [µM]	TGI (KM12 colon)	GI50 (MOLT-4 leukemia) [µM]	TGI (MOLT-4 leukemia)	GI50 (U251 CNS) [µM]	TGI (U251 CNS)	GI50 (COLO 205 colon) [µM]	TGI (COLO 205 colon)	GI50 (NCI-H23 lung) [µM]	TGI (NCI-H23 lung)	GI50 (NCI/ADR-RES ovarian) [µM]	TGI (NCI/ADR-RES ovarian)	GI50 (BT-549 breast) [µM]	TGI (BT-549 breast)	GI50 (MDA-MB-231 breast) [µM]	TGI (MDA-MB-231 breast)	GI50 (DU-145 prostate) [µM]	TGI (DU-145 prostate)
N#C[Se]CCN1C(=O)c2ccccc2C1=O	2.69	10.9 µM	3.14	45.3 µM	2.01	23.9 µM	2.63	8.71 µM	3.07	9.05 µM	2.93	18.8 µM	1.87	7.42 µM	1.66	3.53 µM	2.74	9.65 µM	2.58	7.77 µM
N=C(N)SCc1ccc(Cl)c2ccccc12 (tested in a mixture with another compound)		24.3 µM and 24.9 µM		28.3 µM and 27.7 µM		17.3 µM and 4.25 µM		25.7 µM and 23.6 µM		23.9 µM and 19.9 µM		29 µM and 29.2 µM		48.1 µM and 55.2 µM		29.5 µM and 30.8 µM		21.9 µM and 27.8 µM		27.7 µM and 25.9 µM
COc1ccc([C@@H]2[C@@H](Oc3ccccc3)C(=O)N2c2cc(OC)c(OC)c(OC)c2)cc1F	0.383	> 100 µM	0.088	> 100 µM	0.345	> 100 µM	0.185	> 100 µM	0.235	0.972 µM	0.7	> 100 µM	0.0949	> 100 µM	0.0342	> 100 µM	0.298	> 100 µM	0.378	> 100 µM
Oc1c(Br)cc(Cl)cc1C(c1cc(Cl)cc(Br)c1O)C(Cl)(Cl)Cl	2.1	11.8 µM	2.8	9.3 µM	3.32	9.95 µM	2.18	10.9 µM	1.87	3.51 µM	1.8	7.01 µM	2.48	8.66 µM	3.22	10.1 µM	1.97	5.98 µM	4.74	16.2 µM
OCc1ccc(N2CCc3ccc(F)cc3C2)cc1Cl	8.22	22.9 µM	10.5	26 µM	4.48	30.5 µM	0.124	8.57 µM	0.121	0.36 µM	1.86	21 µM	5.22	25.6 µM	15.2	29.3 µM	11.7	24.9 µM	7.06	21.2 µM
CCCCCCCCCCN=C(N)c1ccc(N2CCN(c3ccc(C(N)=NCCCCCCCCCC)cc3)CC2)cc1	2.19	15.2 µM	2.9	17.8 µM	> 50	> 50 µM	2.44	> 50 µM	3.93	15.7 µM	3.23	> 50 µM	> 50	> 50 µM	1.69	5.04 µM	2.95	17.9 µM	3.3	26.1 µM
COc1cc2c(cc1OCCN1CCN(CCN3C(=O)c4cccc5cccc(c45)C3=O)CC1)N=C[C@@H]1CCCN1C2=O	23.2	58.6 µM	18.2	39 µM	24.6	62.2 µM	16.1	34.1 µM	24.8	44.8 µM	13	25.6 µM	11.9	28.2 µM	19	34.9 µM	19.9	39.8 µM	16.9	30.6 µM
N#CC1=C(N)Oc2c(ccc3ccccc23)C1c1cc2ccccc2n2nnnc12 (stereo not given)	0.99	> 100 µM	0.628	> 100 µM	0.557	> 100 µM	0.748	> 100 µM	2.69	7.32 µM	3.45	> 100 µM	0.534	46.6 µM	1.61	> 100 µM	0.976	> 100 µM	2.77	> 100 µM
O=C1NC(=NCc2cccs2)O/C1=C\c1ccc2ncccc2c1	5.86	> 25 µM	7.45	24.5 µM	4.88	12.4 µM	5.07	> 18.8 µM	5.2	12.8 µM	7.9	> 25 µM	7.8	> 25 µM	3.15	13.3 µM	8.23	> 25 µM	5.82	> 25 µM
